Laboratory results taken from PubChem BioAssay (NCI).
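All cell lines were grown in 96-well plates and treated with compound for 48 hours. TGI: concentration producing complete growth inhibition.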

What was measured:
Assay in all cases: NCI-60 cell line screen, 48 h
MALME-3M melanoma = tested on: MALME-3M melanoma
HOP-18 NSCLC = tested on: HOP-18 NSCLC
HCC-2998 colon = tested on: HCC-2998 colon
HT29 colon = tested on: HT29 colon
OVCAR-8 ovarian = tested on: OVCAR-8 ovarian
HL-60(TB) leukemia = tested on: HL-60(TB) leukemia
CCRF-CEM leukemia = tested on: CCRF-CEM leukemia
LXFL 529 NSCLC = tested on: LXFL 529 NSCLC
RXF 393 renal = tested on: RXF 393 renal
K-562 leukemia = tested on: K-562 leukemia
HCT-15 colon = tested on: HCT-15 colon
A549 NSCLC = tested on: A549 NSCLC
OVCAR-5 ovarian = tested on: OVCAR-5 ovarian
EKVX NSCLC = tested on: EKVX NSCLC
KM12 colon = tested on: KM12 colon
SN12C renal = tested on: SN12C renal
DMS 273 small cell lung = tested on: DMS 273 small cell lung
SK-MEL-5 melanoma = tested on: SK-MEL-5 melanoma
UO-31 renal = tested on: UO-31 renal
SR leukemia = tested on: SR leukemia
SF-268 CNS = tested on: SF-268 CNS
SF-539 CNS = tested on: SF-539 CNS
HOP-62 NSCLC = tested on: HOP-62 NSCLC
HOP-92 NSCLC = tested on: HOP-92 NSCLC
DMS 114 small cell lung = tested on: DMS 114 small cell lung
M19-MEL melanoma = tested on: M19-MEL melanoma
SK-MEL-2 melanoma = tested on: SK-MEL-2 melanoma
U251 CNS = tested on: U251 CNS
SNB-19 CNS = tested on: SNB-19 CNS
UACC-257 melanoma = tested on: UACC-257 melanoma
SW-620 colon = tested on: SW-620 colon
SNB-78 CNS = tested on: SNB-78 CNS
NCI-H460 lung = tested on: NCI-H460 lung
OVCAR-3 ovarian = tested on: OVCAR-3 ovarian
NCI-H522 lung = tested on: NCI-H522 lung
KM20L2 colon = tested on: KM20L2 colon
CAKI-1 renal = tested on: CAKI-1 renal
TK-10 renal = tested on: TK-10 renal
RPMI-8226 leukemia = tested on: RPMI-8226 leukemia
HCT-116 colon = tested on: HCT-116 colon
M14 melanoma = tested on: M14 melanoma
NCI-H226 lung = tested on: NCI-H226 lung
NCI-H23 lung = tested on: NCI-H23 lung
DLD-1 colon = tested on: DLD-1 colon
COLO 205 colon = tested on: COLO 205 colon
IGROV1 ovarian = tested on: IGROV1 ovarian
UACC-62 melanoma = tested on: UACC-62 melanoma
SNB-75 CNS = tested on: SNB-75 CNS
A498 renal = tested on: A498 renal
SK-OV-3 ovarian = tested on: SK-OV-3 ovarian
786-0 renal = tested on: 786-0 renal
OVCAR-4 ovarian = tested on: OVCAR-4 ovarian
SF-295 CNS = tested on: SF-295 CNS
RXF-631 renal = tested on: RXF-631 renal
ACHN renal = tested on: ACHN renal
LOX IMVI melanoma = tested on: LOX IMVI melanoma
SK-MEL-28 melanoma = tested on: SK-MEL-28 melanoma
XF 498 CNS = tested on: XF 498 CNS
MOLT-4 leukemia = tested on: MOLT-4 leukemia

Measured: TGI

CC(C)NC(C)Cc1ccccc1 (stereo not drawn)
> 100 µM: MALME-3M melanoma | HOP-18 NSCLC | HCC-2998 colon | HT29 colon | OVCAR-8 ovarian | HL-60(TB) leukemia | CCRF-CEM leukemia | LXFL 529 NSCLC | RXF 393 renal | K-562 leukemia | HCT-15 colon | A549 NSCLC | OVCAR-5 ovarian | EKVX NSCLC | KM12 colon | SN12C renal | DMS 273 small cell lung | SK-MEL-5 melanoma | UO-31 renal | SR leukemia | SF-268 CNS | SF-539 CNS | HOP-62 NSCLC | HOP-92 NSCLC | DMS 114 small cell lung | M19-MEL melanoma | SK-MEL-2 melanoma | U251 CNS | SNB-19 CNS | UACC-257 melanoma | SW-620 colon | SNB-78 CNS | NCI-H460 lung | OVCAR-3 ovarian | NCI-H522 lung | KM20L2 colon | CAKI-1 renal | TK-10 renal | RPMI-8226 leukemia | HCT-116 colon | M14 melanoma | NCI-H226 lung | NCI-H23 lung | DLD-1 colon | COLO 205 colon | IGROV1 ovarian | UACC-62 melanoma | SNB-75 CNS | A498 renal | SK-OV-3 ovarian | 786-0 renal | OVCAR-4 ovarian | SF-295 CNS | RXF-631 renal | ACHN renal | LOX IMVI melanoma | SK-MEL-28 melanoma

C=C(C)C1CC[C@]2(C(=O)O)CCC3(C)[C@H](CCC4[C@@]5(C)CC[C@H](OC6OC(CO)C(O)C6OC6OC(C)C(O)C(O)C6O)[C@@](C)(CO)C5CC[C@]43C)C12 (stereo partly drawn)
> 100 µM: HCC-2998 colon | HT29 colon | OVCAR-8 ovarian | HL-60(TB) leukemia | CCRF-CEM leukemia | LXFL 529 NSCLC | RXF 393 renal | K-562 leukemia | HCT-15 colon | A549 NSCLC | OVCAR-5 ovarian | EKVX NSCLC | KM12 colon | SN12C renal | DMS 273 small cell lung | SK-MEL-5 melanoma | UO-31 renal | SR leukemia | SF-268 CNS | SF-539 CNS | HOP-62 NSCLC | DMS 114 small cell lung | M19-MEL melanoma | SK-MEL-2 melanoma | U251 CNS | SNB-19 CNS | SW-620 colon | SNB-78 CNS | NCI-H460 lung | OVCAR-3 ovarian | NCI-H522 lung | KM20L2 colon | TK-10 renal | HCT-116 colon | M14 melanoma | NCI-H226 lung | NCI-H23 lung | DLD-1 colon | COLO 205 colon | IGROV1 ovarian | UACC-62 melanoma | XF 498 CNS | SNB-75 CNS | 786-0 renal | OVCAR-4 ovarian | SF-295 CNS | RXF-631 renal | ACHN renal | LOX IMVI melanoma | SK-MEL-28 melanoma | MOLT-4 leukemia

C/C=C/C=C/[C@H]1Cc2cc(O)cc(O)c2O1
> 100 µM: MALME-3M melanoma | HOP-18 NSCLC | HT29 colon | OVCAR-8 ovarian | CCRF-CEM leukemia | LXFL 529 NSCLC | RXF 393 renal | K-562 leukemia | HCT-15 colon | A549 NSCLC | OVCAR-5 ovarian | EKVX NSCLC | KM12 colon | SN12C renal | DMS 273 small cell lung | SK-MEL-5 melanoma | UO-31 renal | SR leukemia | SF-268 CNS | SF-539 CNS | HOP-62 NSCLC | HOP-92 NSCLC | DMS 114 small cell lung | M19-MEL melanoma | SK-MEL-2 melanoma | U251 CNS | SNB-19 CNS | UACC-257 melanoma | SW-620 colon | SNB-78 CNS | NCI-H460 lung | OVCAR-3 ovarian | NCI-H522 lung | KM20L2 colon | CAKI-1 renal | TK-10 renal | HCT-116 colon | M14 melanoma | NCI-H23 lung | DLD-1 colon | COLO 205 colon | IGROV1 ovarian | UACC-62 melanoma | XF 498 CNS | SNB-75 CNS | A498 renal | SK-OV-3 ovarian | 786-0 renal | OVCAR-4 ovarian | SF-295 CNS | RXF-631 renal | ACHN renal | LOX IMVI melanoma | SK-MEL-28 melanoma | MOLT-4 leukemia
92.8 µM: HL-60(TB) leukemia

O=C(O)/C(O)=C1/C=C(c2ccccc2)c2ccccc21
72.2 µM: OVCAR-5 ovarian
49.8 µM: HCC-2998 colon
56.8 µM: RPMI-8226 leukemia
51.8 µM: IGROV1 ovarian
33.1 µM: DMS 273 small cell lung | SK-MEL-2 melanoma
73.5 µM: K-562 leukemia
34 µM: SK-MEL-5 melanoma
45.6 µM: HL-60(TB) leukemia
86.8 µM: HT29 colon
97.2 µM: KM20L2 colon
55.2 µM: HOP-62 NSCLC
45.3 µM: M14 melanoma
47.1 µM: SR leukemia
32.4 µM: KM12 colon
59.6 µM: NCI-H226 lung
37.6 µM: DMS 114 small cell lung | HCT-116 colon
80.7 µM: OVCAR-4 ovarian
48.1 µM: UACC-257 melanoma
43.8 µM: MOLT-4 leukemia
82.3 µM: SF-539 CNS
35.6 µM: RXF 393 renal
78 µM: 786-0 renal
35.9 µM: U251 CNS
50.6 µM: HCT-15 colon
62.7 µM: NCI-H460 lung
30.9 µM: NCI-H522 lung
61.9 µM: SN12C renal
36.1 µM: LOX IMVI melanoma
30 µM: UACC-62 melanoma
79.8 µM: TK-10 renal
71.3 µM: MALME-3M melanoma
34.8 µM: HOP-92 NSCLC
46.6 µM: CCRF-CEM leukemia
60.1 µM: M19-MEL melanoma
61.7 µM: SNB-75 CNS
41.6 µM: UO-31 renal
37.7 µM: SW-620 colon
98.9 µM: A498 renal
59.4 µM: OVCAR-8 ovarian
> 100 µM: SNB-78 CNS | DLD-1 colon | SK-OV-3 ovarian
47.4 µM: HOP-18 NSCLC
51.7 µM: SF-268 CNS
32.9 µM: SF-295 CNS
71.4 µM: A549 NSCLC
83.9 µM: SNB-19 CNS
94.5 µM: ACHN renal
91.4 µM: LXFL 529 NSCLC
63.6 µM: CAKI-1 renal
31.9 µM: COLO 205 colon
86.3 µM: RXF-631 renal
